# Measurements taken from patent US20180325914A1, “INCREASING STORAGE OF VITAMIN A, VITAMIN D AND/OR LIPIDS” (Salk Institute for Biological Studies, priority 2014, published 2018).
# Tested on: primary HSCs
compound,measurement,setting,value
"Cc1sc2c(c1C)C(c1ccc(Cl)cc1)=N[C@@H](CC(=O)OC(C)(C)C)c1nnc(C)n1-2 [JQ1, (S)-tert-butyl 2-(4-(4-chlorophenyl)-2,3,9-trimethyl-6H-thieno[3,2-f][1,2,4]triazolo[4,3-a][1,4]diazepin-6-yl)acetate]",Pla2r1 value_2,"gene Pla2r1, mRNA-Seq, sample Day_6_JQ1",26.6778
same,Plat value_2,"gene Plat, mRNA-Seq, sample Day_6_JQ1",141.636
same,Prelp value_2,"gene Prelp, mRNA-Seq, sample Day_6_JQ1",1220.99
same,Prss35 value_2,"gene Prss35, mRNA-Seq, sample Day_6_JQ1",23.844
same,Ptms value_2,"gene Ptms, mRNA-Seq, sample Day_6_JQ1",627.919
same,Ptrf value_2,"gene Ptrf, mRNA-Seq, sample Day_6_JQ1",259.645
same,Qpct value_2,"gene Qpct, mRNA-Seq, sample Day_6_JQ1",87.1308
same,Rad51 value_2,"gene Rad51, mRNA-Seq, sample Day_6_JQ1",12.1115
same,Rbp1 value_2,"gene Rbp1, mRNA-Seq, sample Day_6_JQ1",218.378
same,Reck value_2,"gene Reck, mRNA-Seq, sample Day_6_JQ1",17.3878
same,Rrm2 value_2,"gene Rrm2, mRNA-Seq, sample Day_6_JQ1",68.04
same,Rtn1 value_2,"gene Rtn1, mRNA-Seq, sample Day_6_JQ1",47.263
same,S100a4 value_2,"gene S100a4, mRNA-Seq, sample Day_6_JQ1",250.226
same,Sbsn value_2,"gene Sbsn, mRNA-Seq, sample Day_6_JQ1",16.3231
same,Scara3 value_2,"gene Scara3, mRNA-Seq, sample Day_6_JQ1",43.4366
same,Sdpr value_2,"gene Sdpr, mRNA-Seq, sample Day_6_JQ1",94.9074
same,Serpini1 value_2,"gene Serpini1, mRNA-Seq, sample Day_6_JQ1",12.3234
same,Sesn3 value_2,"gene Sesn3, mRNA-Seq, sample Day_6_JQ1",27.3512
same,Shcbp1 value_2,"gene Shcbp1, mRNA-Seq, sample Day_6_JQ1",11.9996
same,Shisa2 value_2,"gene Shisa2, mRNA-Seq, sample Day_6_JQ1",144.995
same,Slc2a8 value_2,"gene Slc2a8, mRNA-Seq, sample Day_6_JQ1",16.1545
same,Slc9a3r1 value_2,"gene Slc9a3r1, mRNA-Seq, sample Day_6_JQ1",161.158
same,Snai2 value_2,"gene Snai2, mRNA-Seq, sample Day_6_JQ1",23.1888
same,Spag5 value_2,"gene Spag5, mRNA-Seq, sample Day_6_JQ1",9.803
same,Spc25 value_2,"gene Spc25, mRNA-Seq, sample Day_6_JQ1",27.2563
same,Svep1 value_2,"gene Svep1, mRNA-Seq, sample Day_6_JQ1",86.2113
same,Tbx20 value_2,"gene Tbx20, mRNA-Seq, sample Day_6_JQ1",54.5866
same,Tcf19 value_2,"gene Tcf19, mRNA-Seq, sample Day_6_JQ1",43.53
same,Timp2 value_2,"gene Timp2, mRNA-Seq, sample Day_6_JQ1",329.559
same,Top2a value_2,"gene Top2a, mRNA-Seq, sample Day_6_JQ1",41.0029
same,Upk1b value_2,"gene Upk1b, mRNA-Seq, sample Day_6_JQ1",78.8086
same,Wdr6 value_2,"gene Wdr6, mRNA-Seq, sample Day_6_JQ1",56.5942
same,Zwilch value_2,"gene Zwilch, mRNA-Seq, sample Day_6_JQ1",13.4294
same,3110003A17Rik value_2,"mRNA-Seq expression, Day_6_JQ1",104.778
same,6330406I15Rik value_2,"mRNA-Seq expression, Day_6_JQ1",30.5279
same,9030617O03Rik value_2,"mRNA-Seq expression, Day_6_JQ1",9.249
same,AI597468 value_2,"mRNA-Seq expression, Day_6_JQ1",20.0206
same,Adam12 value_2,"mRNA-Seq expression, Day_6_JQ1",22.1402
same,Adora2b value_2,"mRNA-Seq expression, Day_6_JQ1",12.9207
same,Aga value_2,"mRNA-Seq expression, Day_6_JQ1",42.0303
same,Ak3 value_2,"mRNA-Seq expression, Day_6_JQ1",27.7827
same,Anxa6 value_2,"mRNA-Seq expression, Day_6_JQ1",122.139
same,Arhgef10 value_2,"mRNA-Seq expression, Day_6_JQ1",5.987
same,Ass1 value_2,"mRNA-Seq expression, Day_6_JQ1",41.1545
same,Atp8b2 value_2,"mRNA-Seq expression, Day_6_JQ1",19.4721
same,Btg2 value_2,"mRNA-Seq expression, Day_6_JQ1",38.7075
same,C1qtnf1 value_2,"mRNA-Seq expression, Day_6_JQ1",19.1118
same,C1qtnf6 value_2,"mRNA-Seq expression, Day_6_JQ1",58.5752
same,Cav1 value_2,"mRNA-Seq expression, Day_6_JQ1",17.5128
same,Ccdc104 value_2,"mRNA-Seq expression, Day_6_JQ1",19.7014
same,Ccdc109b value_2,"mRNA-Seq expression, Day_6_JQ1",9.232
same,Cdc42bpa value_2,"mRNA-Seq expression, Day_6_JQ1",16.5997
same,Cdkn2b value_2,"mRNA-Seq expression, Day_6_JQ1",41.7085
same,Chst14 value_2,"mRNA-Seq expression, Day_6_JQ1",18.8651
same,Ckap4 value_2,"mRNA-Seq expression, Day_6_JQ1",147.656
same,Cnn2 value_2,"mRNA-Seq expression, Day_6_JQ1",222.556
same,Col5a1 value_2,"mRNA-Seq expression, Day_6_JQ1",106.143
same,Col5a2 value_2,"mRNA-Seq expression, Day_6_JQ1",372.729
same,Col6a1 value_2,"mRNA-Seq expression, Day_6_JQ1",47.4496
same,Col8a1 value_2,"mRNA-Seq expression, Day_6_JQ1",69.7251
same,Cpe value_2,"mRNA-Seq expression, Day_6_JQ1",54.9734
same,Cpz value_2,"mRNA-Seq expression, Day_6_JQ1",4.843
same,Csrp1 value_2,"mRNA-Seq expression, Day_6_JQ1",294.801
same,Cygb value_2,"mRNA-Seq expression, Day_6_JQ1",51.8956
same,Cyp51 value_2,"mRNA-Seq expression, Day_6_JQ1",13.4382
same,Dcaf12l1 value_2,"mRNA-Seq expression, Day_6_JQ1",3.456
same,Dlg4 value_2,"mRNA-Seq expression, Day_6_JQ1",9.101
same,Dnajb4 value_2,"mRNA-Seq expression, Day_6_JQ1",44.3814
same,Dst value_2,"mRNA-Seq expression, Day_6_JQ1",16.9506
same,Eda2r value_2,"mRNA-Seq expression, Day_6_JQ1",23.0105
same,Efemp2 value_2,"mRNA-Seq expression, Day_6_JQ1",169.818
same,Epdr1 value_2,"mRNA-Seq expression, Day_6_JQ1",7.336
same,Evc2 value_2,"mRNA-Seq expression, Day_6_JQ1",7.337
same,Fam114a1 value_2,"mRNA-Seq expression, Day_6_JQ1",29.7898
same,Fam115c value_2,"mRNA-Seq expression, Day_6_JQ1",4.611
same,Fam149a value_2,"mRNA-Seq expression, Day_6_JQ1",4.452
same,Fam189b value_2,"mRNA-Seq expression, Day_6_JQ1",7.431
same,Fgf18 value_2,"mRNA-Seq expression, Day_6_JQ1",10.4873
same,Fhl2 value_2,"mRNA-Seq expression, Day_6_JQ1",40.1985
same,Flnc value_2,"mRNA-Seq expression, Day_6_JQ1",24.3492
same,Fzd2 value_2,"mRNA-Seq expression, Day_6_JQ1",16.4688
same,Gabra3 value_2,"mRNA-Seq expression, Day_6_JQ1",14.8418
same,Gas6 value_2,"mRNA-Seq expression, Day_6_JQ1",41.2636
same,Gm5424 value_2,"mRNA-Seq expression, Day_6_JQ1",5.331
same,Gpx8 value_2,"mRNA-Seq expression, Day_6_JQ1",110.547
same,Grhpr value_2,"mRNA-Seq expression, Day_6_JQ1",13.8722
same,Gria3 value_2,"mRNA-Seq expression, Day_6_JQ1",4.78
same,Igfbp3 value_2,"mRNA-Seq expression, Day_6_JQ1",483.66
same,Igsf8 value_2,"mRNA-Seq expression, Day_6_JQ1",44.7273
same,Il1rap value_2,"mRNA-Seq expression, Day_6_JQ1",20.7058
same,Inpp5a value_2,"mRNA-Seq expression, Day_6_JQ1",33.3765
same,Isoc2b value_2,"mRNA-Seq expression, Day_6_JQ1",4.059
same,Kif1a value_2,"mRNA-Seq expression, Day_6_JQ1",6.57
same,LOC100616095 value_2,"mRNA-Seq expression, Day_6_JQ1",13.992
same,Lama2 value_2,"mRNA-Seq expression, Day_6_JQ1",9.263
same,Lars2 value_2,"mRNA-Seq expression, Day_6_JQ1",12.6226
same,Lpp value_2,"mRNA-Seq expression, Day_6_JQ1",24.9042
same,Lrig3 value_2,"mRNA-Seq expression, Day_6_JQ1",4.218
same,Lrrn4 value_2,"mRNA-Seq expression, Day_6_JQ1",11.7356
same,Maged2 value_2,"mRNA-Seq expression, Day_6_JQ1",60.8426
same,Mboat7 value_2,"mRNA-Seq expression, Day_6_JQ1",28.6438
same,Meg3 value_2,"mRNA-Seq expression, Day_6_JQ1",15.1775
same,Mlec value_2,"mRNA-Seq expression, Day_6_JQ1",92.0676
same,Mmgt2 value_2,"mRNA-Seq expression, Day_6_JQ1",10.425
same,Mmp2 value_2,"mRNA-Seq expression, Day_6_JQ1",73.6315
same,Mpp2 value_2,"mRNA-Seq expression, Day_6_JQ1",4.639
